In the assay the target is PrP^Sc (Mus musculus, UniProt P04925).
Chain of PrP^Sc (P04925 23-230 limits assumed): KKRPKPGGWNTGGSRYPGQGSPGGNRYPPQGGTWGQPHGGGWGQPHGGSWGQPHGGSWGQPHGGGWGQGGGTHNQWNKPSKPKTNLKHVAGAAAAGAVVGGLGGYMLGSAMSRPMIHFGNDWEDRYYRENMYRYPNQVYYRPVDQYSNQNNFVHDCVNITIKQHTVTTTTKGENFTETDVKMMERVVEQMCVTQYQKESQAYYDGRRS

As for (GGG)KKRPKPGG [SEQ ID NO:68], the “binding to PrP^Sc, Western blotting (FIG. 4, lane 5)” value is listed as “strong binding”.

Values taken from US20090191571A1 (priority 2005, published 2009).
